Legend:
Assay type in all cases: functional
NCI-H460 = assay: Cytotoxicity against human NCI-H460 cells assessed as cell growth at 0.01 uM after 48 hrs by sulforhodamine B assay relative to control; details: NCI-H460, 48 h, read-out: Activity
OVCAR-5 = assay: Cytotoxicity against human OVCAR5 cells assessed as cell growth at 0.1 uM after 48 hrs by sulforhodamine B assay relative to control; details: OVCAR-5, 48 h, read-out: Activity
SR = assay: Cytotoxicity against human SR cells assessed as cell growth at 0.01 uM after 48 hrs by sulforhodamine B assay relative to control; details: read-out: Activity
HT-29 = assay: Cytotoxicity against human HT-29 cells assessed as cell growth at 100 uM after 48 hrs by sulforhodamine B assay relative to control; details: HT-29, 48 h, read-out: Activity
OVCAR-8 = assay: Cytotoxicity against human OVCAR8 cells assessed as cell growth at 1 uM after 48 hrs by sulforhodamine B assay relative to control; details: OVCAR-8, 48 h, read-out: Activity
IGROV-1 [1] = assay: Cytotoxicity against human IGROV1 cells assessed as cell growth at 10 uM after 48 hrs by sulforhodamine B assay relative to control; details: IGROV-1, 48 h, read-out: Activity
SW-620 = assay: Cytotoxicity against human SW620 cells assessed as cell growth at 0.1 uM after 48 hrs by sulforhodamine B assay relative to control; details: SW-620, 48 h, read-out: Activity
SK-OV-3 = assay: Cytotoxicity against human SKOV3 cells assessed as cell growth at 0.01 uM after 48 hrs by sulforhodamine B assay relative to control; details: SK-OV-3, 48 h, read-out: Activity
TK-10 = assay: Cytotoxicity against human TK10 cells assessed as cell growth at 1 uM after 48 hrs by sulforhodamine B assay relative to control; details: TK-10, 48 h, read-out: Activity
ACHN = assay: Cytotoxicity against human ACHN cells assessed as cell growth at 100 uM after 48 hrs by sulforhodamine B assay relative to control; details: read-out: Activity
RPMI-8226 [2] = assay: Cytotoxicity against human RPMI8226 cells assessed as cell growth at 10 uM after 48 hrs by sulforhodamine B assay relative to control; details: RPMI-8226, 48 h, read-out: Activity
BT-549 [3] = assay: Cytotoxicity against human BT549 cells assessed as cell growth at 0.01 uM after 48 hrs by sulforhodamine B assay relative to control; details: BT-549, 48 h, read-out: Activity
SF-539 = assay: Cytotoxicity against human SF539 cells assessed as cell growth at 100 uM after 48 hrs by sulforhodamine B assay relative to control; details: SF-539, 48 h, read-out: Activity
UO-31 = assay: Cytotoxicity against human UO31 cells assessed as growth inhibition after 48 hrs by sulforhodamine B assay; details: UO-31, 48 h
UACC-62 = assay: Cytotoxicity against human UACC62 cells assessed as cell growth at 0.1 uM after 48 hrs by sulforhodamine B assay relative to control; details: UACC-62, 48 h, read-out: Activity
NCI-H23 [4] = assay: Cytotoxicity against human NCI-H23 cells assessed as cell growth at 0.1 uM after 48 hrs by sulforhodamine B assay relative to control; details: NCI-H23, 48 h, read-out: Activity
A549 = assay: Cytotoxicity against human A549/ATCC cells assessed as cell growth at 0.1 uM after 48 hrs by sulforhodamine B assay relative to control; details: A549, 48 h, read-out: Activity
K562 [5] = assay: Cytotoxicity against human K562 cells assessed as cell growth at 0.1 uM after 48 hrs by sulforhodamine B assay relative to control; details: K562, 48 h, read-out: Activity
IGROV-1 [6] = assay: Cytotoxicity against human IGROV1 cells assessed as cell growth at 1 uM after 48 hrs by sulforhodamine B assay relative to control; details: IGROV-1, 48 h, read-out: Activity
IGROV-1 [7] = assay: Cytotoxicity against human IGROV1 cells assessed as cell growth at 0.1 uM after 48 hrs by sulforhodamine B assay relative to control; details: IGROV-1, 48 h, read-out: Activity
NCI-H23 [8] = assay: Cytotoxicity against human NCI-H23 cells assessed as cell growth at 1 uM after 48 hrs by sulforhodamine B assay relative to control; details: NCI-H23, 48 h, read-out: Activity
M14 = assay: Cytotoxicity against human M14 cells assessed as cell growth at 100 uM after 48 hrs by sulforhodamine B assay relative to control; details: M14, 48 h, read-out: Activity
786-0 = assay: Cytotoxicity against human 786-0 cells assessed as growth inhibition after 48 hrs by sulforhodamine B assay; details: 786-0, 48 h
CCRF-CEM = assay: Cytotoxicity against human CCRF-CEM cells assessed as cell growth at 0.01 uM after 48 hrs by sulforhodamine B assay relative to control; details: read-out: Activity
SF-268 = assay: Cytotoxicity against human SF268 cells assessed as cell growth at 0.1 uM after 48 hrs by sulforhodamine B assay relative to control; details: SF-268, 48 h, read-out: Activity
U-251 = assay: Cytotoxicity against human U251 cells assessed as growth inhibition after 48 hrs by sulforhodamine B assay; details: U-251, 48 h
RPMI-8226 [9] = assay: Cytotoxicity against human RPMI8226 cells assessed as cell growth at 1 uM after 48 hrs by sulforhodamine B assay relative to control; details: RPMI-8226, 48 h, read-out: Activity
BT-549 [10] = assay: Cytotoxicity against human BT549 cells assessed as growth inhibition after 48 hrs by sulforhodamine B assay; details: BT-549, 48 h
SK-MEL-28 = assay: Cytotoxicity against human SK-MEL-28 cells assessed as cell growth at 100 uM after 48 hrs by sulforhodamine B assay relative to control; details: SK-MEL-28, 48 h, read-out: Activity
DU-145 = assay: Cytotoxicity against human DU145 cells assessed as cell growth at 100 uM after 48 hrs by sulforhodamine B assay relative to control; details: DU-145, 48 h, read-out: Activity
SNB-19 = assay: Cytotoxicity against human SNB19 cells assessed as growth inhibition after 48 hrs by sulforhodamine B assay; details: SNB-19, 48 h; for CC50: read-out: LC50 (the source's name)
IGROV-1 [11] = assay: Cytotoxicity against human IGROV1 cells assessed as cell growth at 0.01 uM after 48 hrs by sulforhodamine B assay relative to control; details: IGROV-1, 48 h, read-out: Activity
PC-3 = assay: Cytotoxicity against human PC3 cells assessed as cell growth at 0.1 uM after 48 hrs by sulforhodamine B assay relative to control; details: PC-3, 48 h, read-out: Activity
COLO 205 = assay: Cytotoxicity against human COLO205 cells assessed as cell growth at 1 uM after 48 hrs by sulforhodamine B assay relative to control; details: COLO 205, 48 h, read-out: Activity
HCC 2998 = assay: Cytotoxicity against human HCC2998 cells assessed as cell growth at 0.01 uM after 48 hrs by sulforhodamine B assay relative to control; details: HCC 2998, 48 h, read-out: Activity
K562 [12] = assay: Cytotoxicity against human K562 cells assessed as cell growth at 100 uM after 48 hrs by sulforhodamine B assay relative to control; details: K562, 48 h, read-out: Activity

COc1ccc(C(=O)/C=C/c2cc(-c3ccc(OC)c(OC)c3)n[nH]2)cc1OC
growth at 0.01 µM (NCI-H460): 102%
growth at 0.1 µM (OVCAR-5): 94%
growth at 0.01 µM (SR): 94%
growth at 100 µM (HT-29): -39%
growth at 1 µM (OVCAR-8): 80%
growth at 10 µM (IGROV-1 [1]): 6%
growth at 0.1 µM (SW-620): 95%
growth at 0.01 µM (SK-OV-3): 83%
growth at 1 µM (TK-10): 106%
growth at 100 µM (ACHN): -60%
growth at 10 µM (RPMI-8226 [2]): -30%
growth at 0.01 µM (BT-549 [3]): 84%
growth at 100 µM (SF-539): -83%
GI50 (UO-31): 1.5 µM
TGI (UO-31): 3.8 µM
growth at 0.1 µM (UACC-62): 96%
growth at 0.1 µM (NCI-H23 [4]): 103%
growth at 0.1 µM (A549): 93%
growth at 0.1 µM (K562 [5]): 97%
growth at 1 µM (IGROV-1 [6]): 94%
growth at 0.1 µM (IGROV-1 [7]): 104%
growth at 1 µM (NCI-H23 [8]): 94%
growth at 100 µM (M14): -51%
GI50 (786-0): 1.81 µM
TGI (786-0): 5.14 µM
growth at 0.01 µM (CCRF-CEM): 99%
growth at 0.1 µM (SF-268): 95%
GI50 (U-251): 1.2 µM
TGI (U-251): 2.63 µM
growth at 1 µM (RPMI-8226 [9]): 17%
GI50 (BT-549 [10]): 1.44 µM
TGI (BT-549 [10]): 2.92 µM
growth at 100 µM (SK-MEL-28): -32%
growth at 100 µM (DU-145): -100%
GI50 (SNB-19): 1.67 µM
TGI (SNB-19): 4.16 µM
CC50 (SNB-19): > 100 µM
growth at 0.01 µM (IGROV-1 [11]): 104%
growth at 0.1 µM (PC-3): 95%
growth at 1 µM (COLO 205): 82%
growth at 0.01 µM (HCC 2998): 107%

COc1ccc(-c2cc(/C=C/C(=O)c3ccc4c(c3)OCO4)[nH]n2)cc1OC
GI50 (UO-31): 1.5 µM
GI50 (786-0): 1.81 µM
GI50 (U-251): 1.2 µM
GI50 (BT-549 [10]): 1.44 µM
GI50 (SNB-19): 1.67 µM

COc1cc(-c2cc(/C=C/C(=O)c3ccc(Cl)c(Cl)c3)[nH]n2)cc(OC)c1OC
growth at 0.01 µM (NCI-H460): 105%
growth at 0.1 µM (OVCAR-5): 99%
growth at 0.01 µM (SR): 104%
growth at 100 µM (HT-29): 3%
growth at 1 µM (OVCAR-8): 88%
growth at 10 µM (IGROV-1 [1]): 75%
growth at 0.1 µM (SW-620): 99%
growth at 0.01 µM (SK-OV-3): 99%
growth at 1 µM (TK-10): 93%
growth at 100 µM (ACHN): 16%
growth at 10 µM (RPMI-8226 [2]): -7%
growth at 0.01 µM (BT-549 [3]): 89%
growth at 100 µM (SF-539): -74%
LC50 (UO-31): > 100 µM
TGI (UO-31): > 100 µM
growth at 0.1 µM (UACC-62): 94%
growth at 100 µM (K562 [12]): -7%
growth at 0.1 µM (NCI-H23 [4]): 92%
growth at 0.1 µM (A549): 99%
growth at 0.1 µM (K562 [5]): 106%
growth at 1 µM (IGROV-1 [6]): 99%
growth at 0.1 µM (IGROV-1 [7]): 98%
growth at 1 µM (NCI-H23 [8]): 95%
growth at 100 µM (M14): 20%
LC50 (786-0): > 100 µM
TGI (786-0): 68 µM
growth at 0.01 µM (CCRF-CEM): 98%
growth at 0.1 µM (SF-268): 92%
LC50 (U-251): > 100 µM
TGI (U-251): 80.5 µM
growth at 1 µM (RPMI-8226 [9]): 33%
LC50 (concentration killing 50% of cells) (BT-549 [10]): 92.6 µM
TGI (BT-549 [10]): 29.3 µM
growth at 100 µM (SK-MEL-28): -16%
TGI (SNB-19): > 100 µM
CC50 (SNB-19): > 100 µM
growth at 0.01 µM (IGROV-1 [11]): 97%
growth at 0.1 µM (PC-3): 100%
growth at 1 µM (COLO 205): 54%
growth at 0.01 µM (HCC 2998): 96%
